Molecular target: b-Raf (V600E) (Homo sapiens (Human), UniProt P15056, V600E)
Settings: read-out: b-Raf IC-50; AlphaScreen, 60 min pre-incubation, 3 hours reaction

b-Raf (V600E), sequence (P15056 whole entry V600E): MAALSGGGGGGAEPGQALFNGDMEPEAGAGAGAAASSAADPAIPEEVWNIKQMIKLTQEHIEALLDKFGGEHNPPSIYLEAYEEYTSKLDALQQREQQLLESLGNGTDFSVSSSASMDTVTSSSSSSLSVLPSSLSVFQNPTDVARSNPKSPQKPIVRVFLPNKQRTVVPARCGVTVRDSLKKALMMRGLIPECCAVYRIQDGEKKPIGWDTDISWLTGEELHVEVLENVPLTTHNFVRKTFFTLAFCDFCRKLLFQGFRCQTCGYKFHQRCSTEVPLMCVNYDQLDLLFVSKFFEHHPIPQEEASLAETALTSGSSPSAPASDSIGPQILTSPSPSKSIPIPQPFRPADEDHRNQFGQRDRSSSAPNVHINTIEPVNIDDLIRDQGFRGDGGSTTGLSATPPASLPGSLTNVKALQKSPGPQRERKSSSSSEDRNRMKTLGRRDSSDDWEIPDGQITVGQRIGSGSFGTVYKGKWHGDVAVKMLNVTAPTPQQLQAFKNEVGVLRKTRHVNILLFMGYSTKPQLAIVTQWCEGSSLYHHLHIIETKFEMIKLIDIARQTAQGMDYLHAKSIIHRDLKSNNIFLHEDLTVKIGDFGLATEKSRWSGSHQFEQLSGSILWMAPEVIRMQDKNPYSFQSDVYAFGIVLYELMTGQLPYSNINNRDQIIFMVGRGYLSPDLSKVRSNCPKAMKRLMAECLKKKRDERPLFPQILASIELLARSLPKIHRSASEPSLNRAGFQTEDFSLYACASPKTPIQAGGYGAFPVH

Row | Compound | IC50
1 | Cc1ncc(NC(=O)c2cccc(C(F)F)c2)cc1-c1cc(N2CCOCC2)nc(N2CC(O)C2)n1 [Example 770, 3-(difluoromethyl)-N-(5-(2-(3-hydroxyazetidin-1-yl)-6-morpholinopyrimidin-4-yl)-6-methylpyridin-3-yl)benzamide] | 5.3 nM
2 | Cc1ccc(C(=O)Nc2cccc(C(C)C)c2)cc1-c1cc(N2CCOCC2)c(=O)n(C)c1 [Example 436, N-(3-isopropylphenyl)-4-methyl-3-(1-methyl-5-morpholino-6-oxo-1,6-dihydropyridin-3-yl)benzamide] | 3.8 nM
3 | Cc1ccc(NC(=O)c2ccnc(C(F)(F)F)c2)cc1-c1cc(N2CCOCC2)nc(N(C)C)n1 [Example 758, N-(3-(2-(dimethylamino)-6-morpholinopyrimidin-4-yl)-4-methylphenyl)-2-(trifluoromethyl)isonicotinamide] | 2.8 nM
4 | Cc1ncc(NC(=O)c2cccc(C(F)(F)F)c2)cc1-c1cc(N2CCOCC2)nc(N2CCNCC2)n1 [Example 775, N-(6-methyl-5-(6-morpholino-2-(piperazin-1-yl)pyrimidin-4-yl)pyridin-3-yl)-3-(trifluoromethyl)benzamide] | 20 nM
5 | COc1cccc(NC(=O)c2ccc(C)c(-c3cc(N4CCOCC4)c(=O)n(C)c3)c2)c1 [Example 440, N-(3-methoxyphenyl)-4-methyl-3-(1-methyl-5-morpholino-6-oxo-1,6-dihydropyridin-3-yl)benzamide] | 93.9 nM
6 | CCn1cc(C(=O)Nc2ccc(C)c(-c3cc(N4CCOCC4)n(C)c(=O)c3)c2)cc(C(F)(F)F)c1=O [Example 481, 1-ethyl-N-(4-methyl-3-(1-methyl-6-morpholino-2-oxo-1,2-dihydropyridin-4-yl)phenyl)-6-oxo-5-(trifluoromethyl)-1,6-dihydropyridine-3-carboxamide] | 1.2 nM
7 | Cc1ccc(C(=O)Nc2cccc(C(F)(F)F)c2)cc1-c1cc(N2CCOCC2)n(C)c(=O)c1 [Example 517, 4-methyl-3-(1-methyl-6-morpholino-2-oxo-1,2-dihydropyridin-4-yl)-N-(3-(trifluoromethyl)phenyl)benzamide] | 1.2 nM
8 | Cc1ccc(NC(=O)c2ccnc(C(C)(F)F)c2)cc1-c1cc(N2CCOCC2)c(OC2CCOCC2)nn1 [Example 579, 2-(1,1-difluoroethyl)-N-(4-methyl-3-(5-morpholino-6-((tetrahydro-2H-pyran-4-yl)oxy)pyridazin-3-yl)phenyl)isonicotinamide] | 0.6 nM

Other lines, results leading:

Row | IC50 | Compound
9 | 17.9 nM | Cc1ccc(NC(=O)c2cnnc(C(C)(C)C#N)c2)cc1-c1cc(N2CCOCC2)nc(NCCO)n1 [Example 737, 6-(2-cyanopropan-2-yl)-N-(3-(2-((2-hydroxyethyl)amino)-6-morpholinopyrimidin-4-yl)-4-methylphenyl)pyridazine-4-carboxamide]
10 | 53.4 nM | Cc1ncc(NC(=O)c2ccnc(C(C)(C)C#N)c2)cc1-c1cc(N2CCOCC2)c(=O)n(C)n1 [Example 645, 2-(2-cyanopropan-2-yl)-N-(6-methyl-5-(1-methyl-5-morpholino-6-oxo-1,6-dihydropyridazin-3-yl)pyridin-3-yl)isonicotinamide]
11 | 100 nM | Cc1ncc(C(=O)Nc2cccc(C(C)(C)O)c2)cc1-c1cc(N2CCOCC2)c(=O)n(C)c1 [Example 446, N-(3-(2-hydroxypropan-2-yl)phenyl)-1′,2-dimethyl-5′-morpholino-6′-oxo-1′,6′-dihydro-[3,3′-bipyridine]-5-carboxamide]
12 | 3 nM | COc1nnc(-c2cc(NC(=O)c3ccnc(C(C)(C)F)c3)ccc2C)cc1N1CCOCC1 [Example 552, 2-(2-fluoropropan-2-yl)-N-(3-(6-methoxy-5-morpholinopyridazin-3-yl)-4-methylphenyl)isonicotinamide]
13 | 6.7 nM | Cc1ccc(NC(=O)c2cccc(CC#N)c2)cc1-c1cc(N2CCOCC2)c(=O)n(C)n1 [Example 652, 3-(cyanomethyl)-N-(4-methyl-3-(1-methyl-5-morpholino-6-oxo-1,6-dihydropyridazin-3-yl)phenyl)benzamide]
14 | 1 nM | CCOc1nnc(-c2cc(NC(=O)c3ccnc(C(F)(F)CC)c3)ccc2C)cc1N1CCOCC1 [Example 560, 2-(1,1-difluoropropyl)-N-(3-(6-ethoxy-5-morpholinopyridazin-3-yl)-4-methylphenyl)isonicotinamide]
15 | 2.2 nM | Cc1ccc(NC(=O)c2cccc(C(F)F)c2)cc1-c1cc(N2CCOCC2)c(=O)n(C)n1 [Example 655, 3-(difluoromethyl)-N-(4-methyl-3-(1-methyl-5-morpholino-6-oxo-1,6-dihydropyridazin-3-yl)phenyl)benzamide]
16 | 2.1 nM | COc1nnc(-c2cc(NC(=O)c3ccnc(C(C)(C)C#N)c3)ccc2C)cc1N1CCOCC1 [Example 558, 2-(2-cyanopropan-2-yl)-N-(3-(6-methoxy-5-morpholinopyridazin-3-yl)-4-methylphenyl)isonicotinamide]

Same assay, conditions: read-out: b-Raf IC-50; AlphaScreen, 60 min pre-incubation, reaction 3 hours at room temperature

Row | Compound | IC50
17 | Cc1ccc(NC(=O)c2ccnc(C3(C#N)CC3)c2)cc1-c1cc(N2CCOCC2)nc(N2CC(O)C2)c1 [Example 1071, 2-(1-cyanocyclopropyl)-N-(3-(2-(3-hydroxyazetidin-1-yl)-6-morpholinopyridin-4-yl)-4-methylphenyl)isonicotinamide] | 2.08 nM
18 | COc1nnc(-c2cc(C(=O)Nc3ccnc(C(F)(F)F)c3)ccc2C)cc1N1CCOCC1 [Example 1018] | 1.76 nM
19 | Cc1ncc(NC(=O)c2ccnc(C(C)(F)F)c2)cc1-c1cc(NCCO)nc(N2CCOC[C@H]2C)c1 [Example 1139, (R)-2-(1,1-difluoroethyl)-N-(2′-((2-hydroxyethyl)amino)-2-methyl-6′-(3-methylmorpholino)-[3,4′-bipyridin]-5-yl)isonicotinamide] | 14.3 nM
20 | Cc1ccc(NC(=O)c2ccnc(C(F)F)c2)cc1-c1cc(N2CCOCC2)nc(N2CCOCC2)c1 [Example 1115, 2-(difluoromethyl)-N-(3-(2,6-dimorpholinopyridin-4-yl)-4-methylphenyl)isonicotinamide] | 0.65 nM
21 | Cc1ccc(NC(=O)c2cccc(C(F)(F)F)c2)cc1-c1cc(N2CCOCC2)nc(N2C[C@H](O)CC2=O)c1 [Example 1064, (R)—N-(3-(2-(4-hydroxy-2-oxopyrrolidin-1-yl)-6-morpholinopyridin-4-yl)-4-methylphenyl)-3-(trifluoromethyl)benzamide] | 0.65 nM
22 | Cc1ccc(NC(=O)c2ccnc(C(C)(C)F)c2)cc1-c1cc(C2COCCO2)nc(N2CCOCC2)c1 (stereo not shown) [Example 1144, N-(3-(2-(1,4-dioxan-2-yl)-6-morpholinopyridin-4-yl)-4-methylphenyl)-2-(2-fluoropropan-2-yl)isonicotinamide] | 1.56 nM
23 | Cc1ccc(NC(=O)c2ccnc(C3(C#N)CC3)c2)cc1-c1cc(NCCO)nc(N2CCOCC2)c1F [Example 1011, 2-(1-cyanocyclopropyl)-N-(3-(3-fluoro-6-((2-hydroxyethyl)amino)-2-morpholinopyridin-4-yl)-4-methylphenyl)isonicotinamide] | 24.5 nM
24 | Cc1ncc(NC(=O)c2cccc(C(F)(F)F)c2)cc1-c1cc(N2CCOCC2)c2nccn2c1 [Example 884, N-(6-methyl-5-(8-morpholinoimidazo[1,2-a]pyridin-6-yl)pyridin-3-yl)-3-(trifluoromethyl)benzamide] | 19.7 nM

Further lines, results first:

Row | IC50 | Compound
25 | 2.99 nM | CCC(F)(F)c1cc(C(=O)Nc2cnc(C)c(-c3cnc(OC(F)F)c(N4CCOCC4)c3)c2)ccn1 [Example 983, N-(6′-(difluoromethoxy)-2-methyl-5-morpholino-[3,3′-bipyridin]-5-yl)-2-(1,1-difluoropropyl)isonicotinamide]
26 | 2.5 nM | Cc1ccc(NC(=O)c2ccnc(C(C)(C)C#N)c2)cc1-c1nc(N2CCOCC2)c2c(cnn2C)n1 [Example 861, 2-(2-cyanopropan-2-yl)-N-(4-methyl-3-(1-methyl-7-morpholino-1H-pyrazolo[4,3-d]pyrimidin-5-yl)phenyl)isonicotinamide]
27 | 2.44 nM | Cc1ncc(NC(=O)c2ccnc(C(F)F)c2)cc1-c1cnc(OC(F)F)c(N2CCOCC2)c1 [Example 982, N-(6′-(difluoromethoxy)-2-methyl-5′-morpholino-[3,3′-bipyridin]-5-yl)-2-(difluoromethyl)isonicotinamide]

Same assay, conditions: read-out: b-Raf IC-50; Table 2; AlphaScreen, 3 hours reaction

Row | Compound | IC50
28 | Cc1ccc(NC(=O)c2cccc(CC#N)c2)cc1-c1cc(N2CCOCC2)c(=O)n(C)c1 [Example 359, 3-(cyanomethyl)-N-(4-methyl-3-(1-methyl-5-morpholino-6-oxo-1,6-dihydropyridin-3-yl)phenyl)benzamide] | 5.5 nM
29 | Cc1ccc(NC(=O)c2cccc(C(F)(F)F)c2)cc1-c1cc(N2CCOCC2)c(=O)n(CC2(C)COC2)c1 [Example 337, N-(4-methyl-3-(1-((3-methyloxetan-3-yl)methyl)-5-morpholino-6-oxo-1,6-dihydropyridin-3-yl)phenyl)-3-(trifluoromethyl)benzamide] | 12.5 nM
30 | Cc1ncc(NC(=O)c2cc(C(F)(F)F)ccn2)cc1-c1cnc(OCCO)c(N2CCOCC2)c1 [Example 301, N-(6′-(2-hydroxyethoxy)-2-methyl-5′-morpholino-[3,3′-bipyridin]-5-yl)-4-(trifluoromethyl)picolinamide] | 3.2 nM
31 | Cn1cc(-c2cc(NC(=O)c3cccc(C(F)(F)F)c3)ccc2F)cc(N2CCOCC2)c1=O [Example 410] | 2 nM

The remaining lines, values ahead:

Row | IC50 | Compound
32 | 12.5 nM | Cc1ncc(NC(=O)c2cc(C3CC3)on2)cc1-c1cc(N2CCOCC2)c(=O)n(C)c1 [Example 380, 5-cyclopropyl-N-(1′,2-dimethyl-5′-morpholino-6′-oxo-1′,6′-dihydro-[3,3′-bipyridin]-5-yl)isoxazole-3-carboxamide]
33 | 4.5 nM | Cn1cc(-c2cc(NC(=O)c3ccnc(C(C)(F)F)c3)cnc2Cl)cc(N2CCOCC2)c1=O [Example 405, N-(2-chloro-1′-methyl-5′-morpholino-6′-oxo-1′,6′-dihydro-[3,3-bipyridin]-5-yl)-2-(1,1-difluoroethyl)isonicotinamide]
34 | 47.5 nM | Cc1ncc(NC(=O)c2ccnc(C(C)(C)C#N)c2)cc1-c1cc(N2CCOCC2)c(=O)n(C)c1 [Example 141, 2-(2-cyanopropan-2-yl)-N-(1′,2-dimethyl-5′-morpholino-6′-oxo-1′,6′-dihydro-[3,3′-bipyridin]-5-yl)isonicotinamide]
